Measured values reported in patent US10611750B2, “Tetrahydroquinoline compositions as bet bromodomain inhibitors” (FORMA Therapeutics, Inc., priority 2013, dated 2020).

Assays:
[1] = test system: acute myelocytic leukemia (AML) cell line MV4-11; assay: Oncology cell growth assay (3-day proliferation, CellTiter-Glo); assay type: cell-based; settings: Homo sapiens, MV4-11, 72 h, MV4-11 cells, 3000 cells/well, compounds listed under IC50 range headings, read-out: MV411 IC50 (gIC50, inhibition of proliferation)
Outline: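 MV4-11 AML cells (RPMI 1640, 10% FBS) plated at 3000 cells/well and exposed 72 h to compound at final 10 to 0.0045 μM (3-fold series). Viability read by CellTiter-Glo luminescence; gIC50 from four-parameter logistic fit between DMSO control and no-cell background.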

[2] = biological target: T1, BRD4 Bromodomain 1 (BRD4 BD1) (Homo sapiens, UniProt O60885); assay: AlphaScreen binding assay, BRD4 BD1; settings: His-tagged BRD4 BD1 50 nM, biotinylated H4 (1-21) K5/8/12/16 tetra-acetylated peptide 50 nM, compounds listed under IC50 range headings
T1 construct: 44-168 and BRD4 BD2
Outline: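 An AlphaScreen competition format was used with His-BRD4 BD1 or BD2 and biotin-H4 K5/8/12/16-acetyl peptide, each at matched final levels of 50 nM (BD1) or 100 nM (BD2). Incubation in HEPES/NaCl buffer with 0.1% BSA and 0.01% Triton X-100 ran ≥1 h before IC50 determination.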

SMILES	IC50 [1] [nM]	IC50 [2] [nM]
C[C@H]1CCc2c(ccc(-c3cnn4c3N(S(C)(=O)=O)CC4)c2OC2CCC2)N1C(=O)C1CC1 [I-279, ((2S)-5-cyclobutoxy-2-methyl-6-(1-(methylsulfonyl)-2,3-dihydro-1H-pyrazolo[1,5-a]imidazol-7-yl)-3,4-dihydroquinolin-1 (2H)-yl)(cyclopropyl)methanone]	> 1000	1000 to 10000
COC(=O)N1c2ccc(-c3csc(C4(O)CCNCC4)n3)c(OC3CCC3)c2CC[C@@H]1C [I-280, methyl (S)-5-cyclobutoxy-6-(2-(4-hydroxypiperidin-4-yl)thiazol-4-yl)-2-methyl-3,4-dihydroquinoline-1(2H)-carboxylate]	< 500	1000 to 10000
COC(=O)N1c2ccc(-c3csc(C4(F)CCNCC4)n3)c(OC3CCC3)c2CC[C@@H]1C [I-281, methyl (S)-5-cyclobutoxy-6-(2-(4-fluoropiperidin-4-yl)thiazol-4-yl)-2-methyl-3,4-dihydroquinoline-1(2H)-carboxylate]	500 to 1000	100 to 1000
COC(=O)N1c2ccc(-c3cnn(C4CCNCC4OC)c3)c(OC3CCC3)c2CC[C@@H]1C (stereo partly drawn) [I-290, (2S)-methyl 5-cyclobutoxy-6-(1-(3-methoxypiperidin-4-yl)-1H-pyrazol-4-yl)-2-methyl-3,4-dihydroquinoline-1(2H)-carboxylate]	< 500	100 to 1000
COC(=O)N1c2ccc(-c3cnn(C4CCNCC4OC)c3)c(Oc3ccc(F)cc3)c2CC[C@@H]1C (stereo partly drawn) [I-291, (2S)-methyl 5-(4-fluorophenoxy)-6-(1-(3-methoxypiperidin-4-yl)-1H-pyrazol-4-yl)-2-methyl-3,4-dihydroquinoline-1(2H)-carboxylate]	< 500	100 to 1000
COC(=O)N1c2ccc(-c3cnn(C4CCN(C)CC4OC)c3)c(OC3CCC3)c2CC[C@@H]1C (stereo partly drawn) [I-292, (2S)-methyl 5-cyclobutoxy-6-(1-(3-methoxy-1-methylpiperidin-4-yl)-1H-pyrazol-4-yl)-2-methyl-3,4-dihydroquinoline-1 (2H)-carboxylate]	< 500	100 to 1000
COC(=O)N1c2ccc(-c3cnn(C4CCN(C)CC4OC)c3)c(Oc3ccc(F)cc3)c2CC[C@@H]1C (stereo partly drawn) [I-293, (2S)-methyl 5-(4-fluorophenoxy)-6-(1-(3-methoxy-1-methylpiperidin-4-yl)-1H-pyrazol-4-yl)-2-methyl-3,4-dihydroquinoline-1(2H)-carboxylate]	< 500	100 to 1000
C[C@H]1CCc2c(ccc(-c3cnn(C4CCCS(=O)(=O)C4)c3)c2Oc2ccccc2)N1C(=O)C1CC1 (stereo partly drawn) [I-294, 3-{4-[(2S)-1-cyclopropanecarbonyl-2-methyl-5-phenoxy-1,2,3,4-tetrahydroquinolin-6-yl]-1H-pyrazol-1-yl}-1λ^6-thiane-1,1-dione]	< 500	100 to 1000
C[C@H]1CCc2c(ccc(-c3cnn(C4CCCS(=O)(=O)C4)c3)c2Oc2ccc(F)cc2)N1C(=O)C1CC1 (stereo partly drawn) [I-295, 3-{4-[(2S)-1-cyclopropanecarbonyl-5-(4-fluorophenoxy)-2-methyl-1,2,3,4-tetrahydroquinolin-6-yl]-1H-pyrazol-1-yl}-1λ^6-thiane-1,1-dione]	< 500	100 to 1000
COC(=O)N1c2ccc(-c3cnn(C4CCNC(=O)C4)c3)c(OC3CCC3)c2CC[C@@H]1C (stereo partly drawn) [I-296, (2S)-methyl 5-cyclobutoxy-2-methyl-6-(1-(2-oxopiperidin-4-yl)-1H-pyrazol-4-yl)-3,4-dihydroquinoline-1(2H)-carboxylate]	< 500	100 to 1000
COC(=O)N1c2ccc(-c3cnn(C4CCNC(=O)C4)c3)c(Oc3ccc(F)cc3)c2CC[C@@H]1C (stereo partly drawn) [I-297, (2S)-methyl 5-(4-fluorophenoxy)-2-methyl-6-(1-(2-oxopiperidin-4-yl)-1H-pyrazol-4-yl)-3,4-dihydroquinoline-1(2H)-carboxylate]	< 500	100 to 1000
COC(=O)N1c2ccc(-c3cnn(C4CNC4C)c3)c(Oc3ccc(F)cc3)c2CC[C@@H]1C (stereo partly drawn) [I-298, methyl (2S)-5-(4-fluorophenoxy)-2-methyl-6-(1-(2-methylazetidin-3-yl)-1H-pyrazol-4-yl)-3,4-dihydroquinoline-1(2H)-carboxylate]	< 500	100 to 1000
COC(=O)N1c2ccc(-c3cnn(C4CNC4C)c3)c(OC3CCC3)c2CC[C@@H]1C (stereo partly drawn) [I-299, methyl (2S)-5-cyclobutoxy-2-methyl-6-(1-(2-methylazetidin-3-yl)-1H-pyrazol-4-yl)-3,4-dihydroquinoline-1(2H)-carboxylate]	500 to 1000	1000 to 10000
C[C@H]1CCc2c(ccc(-c3cnn(C4CC4)c3NS(C)(=O)=O)c2OC2CCC2)N1C(=O)C1CC1 [I-300, N-(4-((2S)-5-cyclobutoxy-1-(cyclopropanecarbonyl)-2-methyl-1,2,3,4-tetrahydroquinolin-6-yl)-1-cyclopropyl-1H-pyrazol-5-yl)methanesulfonamide]	> 1000	≥ 10000
CC(=O)Nc1c(-c2ccc3c(c2OC2CCC2)CC[C@H](C)N3C(=O)C2CC2)cnn1C1CC1 [I-301, N-(4-((2S)-5-cyclobutoxy-1-(cyclopropanecarbonyl)-2-methyl-1,2,3,4-tetrahydroquinolin-6-yl)-1-cyclopropyl-1H-pyrazol-5-yl)acetamide]	> 1000	1000 to 10000
COC(=O)N1c2ccc(-c3cnn(C4CC(O)C4)c3)c(OC3CCC3)c2CC[C@@H]1C (stereo partly drawn) [I-302, (S)-methyl 5-cyclobutoxy-6-(1-(3-hydroxycyclobutyl)-1H-pyrazol-4-yl)-2-methyl-3,4-dihydroquinoline-1(2H)-carboxylate]	< 500	100 to 1000
COC(=O)N1c2ccc(-c3c[nH]c(C4CCNCC4)n3)c(OC3CCC3)c2CC[C@@H]1C [I-303, methyl (S)-5-cyclobutoxy-2-methyl-6-(2-(piperidin-4-yl)-1H-imidazol-4-yl)-3,4-dihydroquinoline-1(2H)-carboxylate]	< 500	100 to 1000
COC(=O)N1c2ccc(-c3cn(C)c(C4CCNCC4)n3)c(OC3CCC3)c2CC[C@@H]1C [I-304, methyl (S)-5-cyclobutoxy-2-methyl-6-(1-methyl-2-(piperidin-4-yl)-1H-imidazol-4-yl)-3,4-dihydroquinoline-1(2H)-carboxylate]	> 1000	≥ 10000
C[C@H]1CCc2c(ccc(-c3ccn(C4CCNCC4)n3)c2OC2CCC2)N1C(=O)C1CC1 [I-305, (S)-(5-cyclobutoxy-2-methyl-6-(1-(piperidin-4-yl)-1H-pyrazol-3-yl)-3,4-dihydroquinolin-1 (2H)-yl)(cyclopropyl)methanone]	< 500	1000 to 10000
C[C@H]1CCc2c(ccc(-c3ccnn3C3CCNCC3)c2OC2CCC2)N1C(=O)C1CC1 [I-306, ((2S)-5-cyclobutoxy-2-methyl-6-(1-(piperidin-4-yl)-1H-pyrazol-5-yl)-3,4-dihydroquinolin-1(2H)-yl)(cyclopropyl)methanone]	> 1000	≥ 10000
C[C@H]1CCc2c(ccc(-c3ccn(C4CCNCC4)n3)c2Oc2ccccc2)N1C(=O)C1CC1 [I-307, (S)-cyclopropyl(2-methyl-5-phenoxy-6-(1-(piperidin-4-yl)-1H-pyrazol-3-yl)-3,4-dihydroquinolin-1(2H)-yl)methanone]	< 500	100 to 1000
C[C@H]1CCc2c(ccc(-c3ccnn3C3CCNCC3)c2Oc2ccccc2)N1C(=O)C1CC1 [I-308, cyclopropyl((2S)-2-methyl-5-phenoxy-6-(1-(piperidin-4-yl)-1H-pyrazol-5-yl)-3,4-dihydroquinolin-1(2H)-yl)methanone]	> 1000	≥ 10000
C[C@H]1CCc2c(ccc(-c3cnn(C4CCNCC4)n3)c2OC2CCC2)N1C(=O)C1CC1 [I-309, (S)-(5-cyclobutoxy-2-methyl-6-(2-(piperidin-4-yl)-2H-1,2,3-triazol-4-yl)-3,4-dihydroquinolin-1(2H)-yl)(cyclopropyl)methanone]	< 500	1000 to 10000
C[C@H]1CCc2c(ccc(-c3cn(C4CCNCC4)nn3)c2OC2CCC2)N1C(=O)C1CC1 [I-310, (S)-(5-cyclobutoxy-2-methyl-6-(1-(piperidin-4-yl)-1H-1,2,3-triazol-4-yl)-3,4-dihydroquinolin-1(2H)-yl)(cyclopropyl)methanone]	< 500	100 to 1000
C[C@H]1CCc2c(ccc(-c3cnn(C4CCNCC4)n3)c2Oc2ccccc2)N1C(=O)C1CC1 [I-311, (S)-cyclopropyl(2-methyl-5-phenoxy-6-(2-(piperidin-4-yl)-2H-1,2,3-triazol-4-yl)-3,4-dihydroquinolin-1(2H)-yl)methanone]	< 500	< 100
C[C@H]1CCc2c(ccc(-c3cn(C4CCNCC4)nn3)c2Oc2ccccc2)N1C(=O)C1CC1 [I-312, (S)-cyclopropyl(2-methyl-5-phenoxy-6-(1-(piperidin-4-yl)-1H-1,2,3-triazol-4-yl)-3,4-dihydroquinolin-1(2H)-yl)methanone]	< 500	< 100
COC(=O)N1c2ccc(-c3csc(C4CNC4)n3)c(OC3CCC3)c2CC[C@@H]1C [I-313, (S)-methyl 6-(2-(azetidin-3-yl)thiazol-4-yl)-5-cyclobutoxy-2-methyl-3,4-dihydroquinoline-1(2H)-carboxylate]	> 1000	100 to 1000
COC(=O)N1c2ccc(-c3csc(C4(O)CNC4)n3)c(OC3CCC3)c2CC[C@@H]1C [I-314, (S)-methyl-5-cyclobutoxy-6-(2-(3-hydroxyazetidin-3-yl)thiazol-4-yl)-2-methyl-3,4-dihydroquinoline-1(2H)-carboxylate]	> 1000	1000 to 10000
